Experimental data published in patent US9052321B2, “Flavivirus-based system for production of hepatitis C virus (HCV)” (priority 2008, dated 2015).

Test system: HCV particles released by BHK-21 parental or BHK-WNV1 cells
Assay: Release of HCV envelope proteins/particles by BHK cells transfected with pHCVp7 after glycosylation or trafficking inhibitors (Western blot)
Assay type: cell-based, HCV 1a
Conditions: for secretion of HCV envelope as well as core proteins: BHK parental and -WNV SG-replicon cells transfected with pHCVp7, 3 mM dnj, 3 mM pag or 0.3 mM alloxan, Western blot; for HCV production and/or secretion: summary in the model of FIG. 13
Procedure: FIG. 2 illustrates factors affecting the release of HCV structural proteins: A) Enhancement by flavivirus, but not alphavirus subgenomic, replicons in BHK-21 cells: BHK-21 parental cells (lane 1) or bearing WNV1 (lane 2), Den2 (lane 3) or Semliki Forest virus SG-replicon (lane 4) were transfected with pHCVp7 (plasmid encoding HCV core to p7). Three days later, clarified culture media were pelleted over 15% sucrose cushion, then pellets were analyzed by Western blot with the following monoclonal antibodies: i) anti-HCV E2: AP33; ii) anti-HCV E1: A4, and iii) anti-HCV core: C1. B) WNV- and HCV-SG rep differentially affect the release of HCV-like particles. (left) BHK-21 cells, parental or bearing WNV1 SG-rep, were transfected with HCVp7, a plasmid encoding HCV core to p7. Three days later, HCV proteins in the lysate and supernatants (SN) were analyzed by Western Blot (WB). (right) HuH-7.5 cells (parental or harboring HCV 1a SG-rep) transfected with the same plasmid, were analyzed by WB. *, the E1/E2 signals were obtained with 60 ml of culture media instead of 15 ml for BHK parental and -WNV1 cells. C) N-glycosylation but not O-glycosylation is required for the release of HCV particles: BHK cells were transfected with pHCVp7, then treated or not with 3 mM deoxynojirimycin (dnj), 3 mM phenyl acetyl galactosaminide (pag) or 0.3 mM alloxan (all) for 2 days; HCV E1 Envelope released by BHK-21 parental or BHK-WNV1 cells was analyzed by Western blot after incubation with or without endoglycosidase H (endo-H).
FIG. 11 illustrates that secretion of HCV particles involves maturation of HCV glycoproteins in Golgi apparatus: A) Twelve hours after transfection of BHK-WNV1 cells with pHCVp7, cells were treated with 20 μM brefeldin-A (BFA) for 24 hours and the amounts of HCV E1 and E2 proteins in cell lysates and released particles were analyzed by WB; Hsp70=control. B) BHK and BHK-WNV1 cells were transfected with pHCVp7. Three days later, cells and particles in SN were harvested and treated with endo-H, followed by WB analysis. *, 30 ml culture media was used for parental BHK cells (15 ml for BHK-WNV1 cells).
To test the sensitivity of HCV glycoproteins produced in BHK-21 cells to endo-beta-N-acetyl-glucosaminidase H (endoglycosidase H/endo-H; New England Biolabs), cells were transfected with pHCVp7 plasmid. Three days later, supernatant was harvested as above; cell lysate and supernatant were then incubated in the presence of endo-H according to the manufacturer's protocols. For deoxyrijinomycin (DNJ) and brefeldin A (BFA) treatment, cells were transfected with pHCVp7 and, 12 hr later, the medium was replaced with DMEM containing 5 μg/ml BFA (Sigma), or 3 mM DNJ. Cells were grown for another 24 hr and supernatant was harvested.

Structure (SMILES) | secretion of HCV envelope as well as core proteins | HCV production and/or secretion (BHK-WNV1 cells) | release of HCV particles (parental BHK-21 and BHK-WNV1 cells, 3 mM DNJ) | HCV secretion (BHK-WNV1 cells, 20 μM BFA for 24 hours) | electrophoretic mobility of intracellular HCV envelope proteins (BHK-WNV1 cells, BFA)
CC(=O)N[C@H]1[C@@H](Oc2ccccc2)O[C@H](CO)[C@H](O)[C@@H]1O [phenyl acetyl galactosaminide] | marginal effects | – | – | – | –
OC[C@H]1NC[C@H](O)[C@@H](O)[C@@H]1O [DNJ, deoxynojirimycin] | strongly inhibited | blocked | decreased | – | –
O=C1NC(=O)C(=O)C(=O)N1 [alloxan] | marginal effects | – | – | – | –
C[C@H]1CCC/C=C/[C@@H]2C[C@H](O)C[C@H]2[C@H](O)/C=C/C(=O)O1 [BFA, brefeldin A] | – | blocked | – | abrogated | enhanced
